GI50 data for 30 molecules are collected here from patent US12558428B2, “Heterobifunctional compounds and their use in treating disease” (Halda Therapeutics OpCo, Inc., priority 2024, dated 2026).

Type in all cases: cell-based
In experiment [1] the test system is T-Rex 293 cells having increased expression of estrogen receptor alpha protein. Briefly: Cellular growth inhibition assay, T-Rex 293 cells, (+) doxycycline. The conditions noted are these: T-REx-293, 72 h, Table 7-A; T-Rex 293 cells with doxycycline (increased ERα expression); 72 hours; CellTiter-Glo; read-out: (+) Dox GI50. The essentials: (§1)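 Growth of a doxycycline-inducible ERα T-Rex 293 clone, induced or not with 3 ng/mL doxycycline, was followed for 72 h with test compound in hormone-depleted medium. CellTiter-Glo luminescence gave GI50.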

Experiment [2] concerns T-Rex 293 cells lacking increased expression of estrogen receptor alpha protein. Briefly: Cellular growth inhibition assay, T-Rex 293 cells, (−) doxycycline. The note with it: T-REx-293, 72 h, Table 7-A; T-Rex 293 cells without doxycycline (lacking increased ERα expression); 72 hours; CellTiter-Glo; read-out: (−) Dox GI50. The essentials:
as §1

Experiment [3] has as its system MCF7 cells (ATCC #HTB-22). In words: Cellular growth inhibition assay, MCF7 cells purchased from ATCC. The conditions noted are these: Homo sapiens, MCF7, 144 h, Table 8-A; MCF7 cells purchased from ATCC; six days; CellTiter-Glo; read-out: GI50. In a few lines:
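GI50 values come from a four-parameter fit of CellTiter-Glo 2.0 luminescence after six days of compound exposure at 37° C. Seeding density depended on the source: 225 cells/well for ECACC MCF7, 1,500 for ATCC. Medium was RPMI 1640 with 10% FBS and 0.2 U/ml insulin.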
(In general: In ATP-based viability assays light output follows the ATP content of the culture.)

Molecules are shown by their SMILES. Bounds are passed on as bounds.

One may read the GI50 as the concentration at which growth is held to half of that of the control. Take `Cc1sc2c(c1C)C(c1ccc(N3CCC(O)(CN4CCN(c5ccc([C@@H]6c7ccc(O)cc7CC[C@@H]6c6ccccc6)nn5)CC4)CC3)cc1)=N[C@H](Cc1ncco1)c1nnc(C)n1-2` [III-223]: the GI50 in experiment [1], in experiment [2] and in experiment [3] was 500 to 2500 nM each time.

For `Cc1sc2c(c1C)C(c1ccc(CC3CC4(CCCN(c5ccc([C@H]6c7ccc(O)cc7CC[C@H]6c6ccccc6)cc5)C4)C3)cc1)=N[C@@H](C)c1nnc(C)n1-2` (stereo partly drawn) [III-13], the GI50 was 500 to 2500 nM in experiment [1], greater than 2500 nM in experiment [2] and 500 to 2500 nM in experiment [3].

Turning to `Cc1sc2c(c1C)C(c1ccc(N3CCC(O)(CN4CCN(c5ccc([C@H]6c7ccc(O)cc7CC[C@H]6c6ccc(F)cc6F)cc5)CC4)CC3)cc1)=N[C@@H](Cc1ncco1)c1nnc(C)n1-2` [III-258], the GI50 in experiment [1], in experiment [2] and in experiment [3] was 50 to 500 nM each time.

For `Cc1sc2c(c1C)C(c1ccc(N3CC(CN4CCN(CC5CN(c6ccc([C@H]7c8ccc(O)cc8CC[C@H]7c7ccccc7)cc6)C5)CC4)C3)cc1)=N[C@H](C)c1nnc(C)n1-2` [III-136], the 50% growth inhibitory concentration (GI50) in experiment [1], in experiment [2] and in experiment [3] was greater than 2500 nM throughout.

Turning to `Cc1sc2c(c1C)C(c1ccc(N3CC4(CCN(CC5CCN(c6ccc([C@H]7c8ccc(O)cc8CC[C@H]7c7ccccc7)cc6)CC5)CC4)C3)cc1)=N[C@@H](C)c1nnc(C)n1-2` [III-11], the GI50 in experiment [1] is less than 50 nM; in experiment [2] it was 50 to 500 nM; in experiment [3] it was 50 to 500 nM.

For the molecule `Cc1sc2c(c1C)C(c1ccc(N3CC(CC4CCN(CC5CN(c6ccc([C@@H]7c8ccc(O)cc8CC[C@@H]7c7ccccc7)cc6)C5)CC4)C3)cc1)=N[C@@H](C)c1nnc(C)n1-2` [III-131], the GI50 in experiment [1] was less than 50 nM; in experiment [2], 500 to 2500 nM; in experiment [3] it was 50 to 500 nM.

Turning to `Cc1sc2c(c1C)C(c1ccc(N3CCC4(CC3)CCN(c3ccc([C@@H]5c6ccc(O)cc6CC[C@@H]5c5ccccc5)cc3)C4)cc1)=N[C@@H](C)c1nnc(C)n1-2` [III-117], the concentration for 50% growth inhibition (GI50) lay within 500 to 2500 nM in experiment [1], 500 to 2500 nM in experiment [2] and 50 to 500 nM in experiment [3].

On to `Cc1sc2c(c1C)C(c1ccc(OCC3CCN(CCOc4ccc([C@H]5c6ccc(O)cc6CC[C@H]5c5ccccc5)cc4)CC3)cc1)=N[C@@H](Cc1ncco1)c1nnc(C)n1-2` [III-112], for which the GI50 in experiment [1], in experiment [2] and in experiment [3] was 50 to 500 nM in each case.

As to `Cc1sc2c(c1C)C(c1ccc(N3CCC(CN4CCN(c5ccc([C@@H]6c7ccc(O)cc7CC[C@@H]6c6ccccc6)cc5)CC4)CC3)cc1)=N[C@H](Cc1ncco1)c1nnc(C)n1-2` [III-74], the 50% growth inhibitory concentration (GI50) in experiment [1] is less than 50 nM; in experiment [2], 50 to 500 nM; in experiment [3], 50 to 500 nM.

Consider `Cc1sc2c(c1C)C(c1ccc(NCC3CCN(CCOc4ccc([C@@H]5c6ccc(O)cc6CC[C@@H]5c5ccccc5)cc4)C3)cc1)=NC(Cc1ncco1)c1nnc(C)n1-2` (stereo partly drawn) [III-57], for which the concentration for 50% growth inhibition (GI50) in experiment [1], in experiment [2] and in experiment [3] was 50 to 500 nM throughout.

As to `COc1cc(N2CCN(CC3(O)CCN(c4ccc(C5=N[C@@H](C)c6nnc(C)n6-c6sc(C)c(C)c65)cc4)CC3)CC2)ccc1[C@H]1c2ccc(O)cc2CC[C@H]1c1ccccc1F` (single isomer, unassigned) [III-308], the GI50 in experiment [1], in experiment [2] and in experiment [3] was 50 to 500 nM in each case.

Consider `Cc1sc2c(c1C)C(c1ccc(CC(=O)N3CCC4(CCN(c5ccc([C@@H]6c7ccc(O)cc7CC[C@@H]6c6ccccc6)cc5)CC4)C3)cc1)=N[C@@H](C)c1nnc(C)n1-2` [III-137], for which the values for the 50% growth inhibitory concentration (GI50) in experiment [1], in experiment [2] and in experiment [3] were 500 to 2500 nM, 500 to 2500 nM and 50 to 500 nM, respectively.

In the case of `Cc1sc2c(c1C)C(c1ccc(N3CCC(O)(CN4CCN(c5cc(F)c([C@@H]6c7ccc(O)cc7CC[C@@H]6c6ccc(F)cc6)c(F)c5)CC4)CC3)cc1)=N[C@@H](C)c1nnc(C)n1-2` [III-236], the 50% growth inhibitory concentration (GI50) was less than 50 nM in experiment [1], 500 to 2500 nM in experiment [2] and less than 50 nM in experiment [3].

In the case of `Cc1sc2c(c1C)C(c1ccc(N3CCC(O)(CN4CCN(c5ccc([C@H]6c7ccc(O)cc7CC[C@H]6c6cccc(F)c6F)c(F)c5)CC4)CC3)cc1)=N[C@@H](C)c1nnc(C)n1-2` [III-271], the GI50 in experiment [1], in experiment [2] and in experiment [3] was 50 to 500 nM each time.

Turning to `Cc1sc2c(c1C)C(c1ccc(N3CCC(O)(CC4CCN(c5ccc([C@@H]6c7ccc(B(O)O)cc7CC[C@@H]6c6ccccc6)cc5)CC4)CC3)cc1)=N[C@@H](C)c1nnc(C)n1-2` [III-264], the figures for the GI50 in experiment [1], in experiment [2] and in experiment [3] were less than 50 nM, 500 to 2500 nM and less than 50 nM, respectively.

Consider `Cc1sc2c(c1C)C(c1ccc(N3CCC(O)(CN4CCN(c5ccc(C6=C(c7ccccc7)CCCc7cc(C(=O)O)ccc76)cc5)CC4)CC3)cc1)=N[C@@H](C)c1nnc(C)n1-2` [IV-16], for which the results for the concentration for 50% growth inhibition (GI50) in experiment [1], in experiment [2] and in experiment [3] were less than 50 nM, 500 to 2500 nM and less than 50 nM, respectively.

For the molecule `Cc1sc2c(c1C)C(c1ccc(N3CC(CC4(O)CCN(CC5CN(c6ccc([C@H]7c8ccc(O)cc8CC[C@H]7c7ccc(F)cc7)cc6)C5)CC4)C3)cc1)=N[C@@H](C)c1nnc(C)n1-2` [III-238], the GI50 in experiment [1] is 50 to 500 nM; in experiment [2] it was 500 to 2500 nM; in experiment [3], 50 to 500 nM.

For the molecule `Cc1cc([C@@H]2c3ccc(O)cc3CC[C@@H]2c2ccc(F)cc2)ccc1N1CCN(CC2(O)CCN(c3ccc(C4=N[C@@H](C)c5nnc(C)n5-c5sc(C)c(C)c54)cc3)CC2)CC1` [III-284], the GI50 in experiment [1] was in the range of 50 to 500 nM; in experiment [2] it was 500 to 2500 nM; in experiment [3], 50 to 500 nM.

As to `Cc1sc2c(c1C)C(c1ccc(NCC3CC4(C3)CN(CCOc3ccc([C@@H]5c6ccc(O)cc6CC[C@@H]5c5ccccc5)cc3)C4)cc1)=NC(Cc1ncco1)c1nnc(C)n1-2` (stereo partly drawn) [III-51], the concentration for 50% growth inhibition (GI50) was less than 50 nM in experiment [1], 50 to 500 nM in experiment [2] and less than 50 nM in experiment [3].

On to `Cc1sc2c(c1C)C(c1ccc(NCC3CCCN(CCOc4ccc([C@@H]5c6ccc(O)cc6CC[C@@H]5c5ccccc5)cc4)C3)cc1)=NC(Cc1ncco1)c1nnc(C)n1-2` (stereo partly drawn) [III-53], for which the GI50 in experiment [1], in experiment [2] and in experiment [3] was 50 to 500 nM throughout.

`Cc1sc2c(c1C)C(c1ccc(N3CCC(CN4CCN(c5ccc([C@@H]6c7ccc(O)cc7CC[C@@H]6c6ccccc6)cn5)CC4)CC3)cc1)=N[C@@H](Cc1ncco1)c1nnc(C)n1-2` [III-126]: the GI50 in experiment [1] was less than 50 nM; in experiment [2], 50 to 500 nM; in experiment [3], 50 to 500 nM.

On to `Cc1sc2c(c1C)C(c1ccc(N3CCN(CC4CCN(c5ncc([C@H]6c7ccc(O)cc7CC[C@H]6c6ccccc6)cn5)CC4)CC3)cc1)=N[C@@H](C)c1nnc(C)n1-2` [III-122], for which the figures for the GI50 in experiment [1], in experiment [2] and in experiment [3] were 500 to 2500 nM, greater than 2500 nM and 500 to 2500 nM, respectively.

As to `Cc1sc2c(c1C)C(c1ccc(N3CCC(C)(CNCCOc4ccc([C@@H]5c6ccc(O)cc6CC[C@@H]5c5ccccc5)cc4)CC3)cc1)=NC(Cc1ncco1)c1nnc(C)n1-2` (stereo partly drawn) [III-62], the GI50 was less than 50 nM in experiment [1], 50 to 500 nM in experiment [2] and 50 to 500 nM in experiment [3].

Consider `Cc1sc2c(c1C)C(c1ccc(N3CC4(CC(CN5CCN(c6ccc(C7=C(c8ccccc8Cl)CCCc8cc(C(=O)O)ccc87)c(F)c6)CC5)C4)C3)cc1)=N[C@@H](C)c1nnc(C)n1-2` [IV-58], for which the GI50 in experiment [1] is less than 50 nM; in experiment [2], 500 to 2500 nM; in experiment [3], less than 50 nM.

`Cc1sc2c(c1C)C(c1ccc(N3CCC(CC4(O)CCN(c5ccc([C@@H]6c7ccc(O)cc7CC[C@@H]6c6ccccc6)cc5)CC4)CC3)cc1)=N[C@@H](Cc1ncco1)c1nnc(C)n1-2` [III-164]: the figures for the concentration for 50% growth inhibition (GI50) in experiment [1], in experiment [2] and in experiment [3] were less than 50 nM, 50 to 500 nM and less than 50 nM, respectively.

Regarding `Cc1sc2c(c1C)C(c1ccc(N3CCC(CN4CC(COc5ccc([C@@H]6c7ccc(O)cc7CC[C@@H]6c6ccccc6)cc5)C4)CC3)cc1)=N[C@@H](Cc1ncco1)c1nnc(C)n1-2` [III-91], the results for the GI50 in experiment [1], in experiment [2] and in experiment [3] were 50 to 500 nM, 500 to 2500 nM and less than 50 nM, respectively.

As for `Cc1sc2c(c1C)C(c1ccc(N[C@H]3CC[C@@H](NCCOc4ccc([C@@H]5c6ccc(O)cc6CC[C@@H]5c5ccccc5)cc4)CC3)cc1)=NC(Cc1ncco1)c1nnc(C)n1-2` (stereo partly drawn) [III-52], the concentration for 50% growth inhibition (GI50) in experiment [1], in experiment [2] and in experiment [3] was 50 to 500 nM in each case.

As for `Cc1sc2c(c1C)C(c1ccc(N3CC(CN4CC(COc5ccc([C@H]6c7ccc(O)cc7CC[C@H]6c6ccccc6)cc5)C4)C3)cc1)=N[C@@H](C)c1nnc(C)n1-2` [III-102], the concentration for 50% growth inhibition (GI50) in experiment [1], in experiment [2] and in experiment [3] was 50 to 500 nM throughout.

For `Cc1sc2c(c1C)C(c1ccc(N3CCC(CN4CC5(CCN(c6ccc([C@@H]7c8ccc(O)cc8CC[C@@H]7c7ccccc7)cc6)CC5)C4)CC3)cc1)=N[C@@H](C)c1nnc(C)n1-2` [III-87], the GI50 was less than 50 nM in experiment [1], 50 to 500 nM in experiment [2] and less than 50 nM in experiment [3].

As to `Cc1sc2c(c1C)C(c1ccc(N3CCC(O)(CN4CCN(c5cc(F)c([C@@H]6c7ccc(O)cc7CC[C@@H]6c6ccc(F)cc6)cc5F)CC4)CC3)cc1)=N[C@@H](C)c1nnc(C)n1-2` [III-256], the values for the GI50 in experiment [1], in experiment [2] and in experiment [3] were less than 50 nM, 500 to 2500 nM and less than 50 nM, respectively.
